Experimental data taken from the NIST ThermoML archive (doi:10.1016/j.jct.2013.01.033).
± gives the expanded uncertainty stated by the source.

Experiments:
[1] = 101.33 kPa, Liquid, Vibrating tube method
[2] = refractive index (Na D-line) (dimensionless); settings: 293.15 K; 101.33 kPa; Liquid; Standard Abbe refractometry

Compound | mass density ([1]; 298.15 K) | mass density ([1]; 308.15 K) | mass density ([1]; 318.15 K) | mass density ([1]; 328.15 K) | mass density ([1]; 338.15 K) | mass density ([1]; 348.15 K) | refractive index [2]
CCCC[N+]1(C)CCCC1.N#CC(=C=[N-])C#N [1-butyl-1-methylpyrrolidinium tricyanomethanide] | 1006.71 ± 0.85 kg/m3 | 1000.55 ± 0.84 kg/m3 | 994.44 ± 0.83 kg/m3 | 988.41 ± 0.82 kg/m3 | 982.44 ± 0.82 kg/m3 | 976.52 ± 0.81 kg/m3 | 
CCCO [propan-1-ol] |  |  |  |  |  |  | 1.38432 ± 0.0007
